Assay results taken from patent US11998610B2, “Conjugates and methods of using the same” (Flagship Pioneering Innovations V, Inc., priority 2018, dated 2024).
Non-standard residues stand in square brackets, D forms with d. Residues, ends and D or L forms follow the SMILES beside them. *: point of attachment. Myristoyl = CCCCCCCCCCCCCC(=O)*; Octanoyl = CCCCCCCC(=O)*

Key:
[1] = Stability of conjugates in Simulated Intestinal Fluid (SIF); format: in vitro ADME; details: simulated intestinal fluid pH 6.7 with pancreatin, 1 μM, 37° C.
How it was run: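 Conjugates at 1 μM (from 1 mM DMSO stock) were incubated with agitation at 37° C. in freshly made SIF: FaSSIF powder plus pancreatin in pH 6.7 phosphate buffer. Aliquots taken at T0 and at regular intervals were quenched with 1 volume acetonitrile, and LC/MS gave degradation rates.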

[2] = In vitro Colonic Material Stability Assay; format: in vitro ADME; details: for Assay 3 (% Remaining at 24 h): colonic material slurry, anaerobic, 1 or 10 μM; for Selective delivery to the colon (conclusion from Table 2): from SGF, SIF and colonic material stability
How it was run: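 Compounds were added at 1 or 10 μM final to colonic material slurry (6.7 μL of 15% w/v slurry per 1 mL YCFAC or similar medium). Samples taken at 0–2880 min were acetonitrile-quenched and the remaining compound quantified by LC/MS.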

E. coli BL21(DE3) = test: Cell-based assay with ClbP with LCMS, ClbP negative strain; details: 10 μM compound, 37° C., 20 h
How it was run: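 Compound (10 μM final) incubated 20 h at 37° C, aerobically, with 1:40-diluted overnight cultures of ClbP-positive E. coli or negative BL21(DE3), in duplicate, alongside uninoculated LB. Remaining parent quantified by LC-MS/MS (MRM) after acetonitrile quench, expressed as percent of media-alone.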

Row | Structure (SMILES) | Assay 2 (SIF) (% @ Remaining 4 hours) [1] | Assay 3 (% Remaining at 24 h) [2] | % Remaining in ClbP Negative Relative to Media-Only (E. coli BL21(DE3)) | Selective delivery to the colon (conclusion from Table 2) [2]
1 | CCCCCCCCCCCCCC(=O)N[C@H](CC(N)=O)C(=O)N[C@@H](C)C(=O)OC [Example 1, Methyl tetradecanoyl-D-asparaginyl-L-alaninate] (Myristoyl-[dN]-Ala-OMe) | A (<25% of the tested compound remaining) | A (<25% of the tested compound remaining) | + (between 25-75% compound remaining in the 20 μM WT ClbP reaction relative to the no-enzyme control) | –
2 | CCCCCCCC(=O)N[C@H](CC(N)=O)C(=O)N[C@@H](C)C(=O)OC [Example 2, Methyl octanoyl-D-asparaginyl-L-alaninate] (Octanoyl-[dN]-Ala-OMe) | A (<25% of the tested compound remaining) | C (>75% of the tested compound remaining) | + (between 25-75% compound remaining in the 20 μM WT ClbP reaction relative to the no-enzyme control) | –
3 | CCCCCCCC(=O)N[C@@H](CC(N)=O)C(=O)N[C@@H](C)C(=O)OC [Example 4, Methyl octanoyl-L-asparaginyl-L-alaninate] (Octanoyl-Asn-Ala-OMe) | A (<25% of the tested compound remaining) | A (<25% of the tested compound remaining) | ++ (<25% compound remaining in the 20 μM WT ClbP reaction relative to the control) | –
4 | CCCCCCCC(=O)N[C@H](CC(N)=O)C(=O)N[C@H](C)C(=O)OC [Example 5, Methyl octanoyl-D-asparaginyl-D-alaninate] (Octanoyl-[dN]-[dA]-OMe) | C (>75% of the tested compound remaining) | C (>75% of the tested compound remaining) | − (>75% compound remaining in the 20 μM WT ClbP reaction relative to the no-enzyme control) | –
5 | CCCCCCCC(=O)N[C@H](CC(N)=O)C(=O)N[C@H](C(=O)OC)C(C)C [Example 6, Methyl octanoyl-D-asparaginyl-L-valinate] (Octanoyl-[dN]-Val-OMe) | A (<25% of the tested compound remaining) | B (25-75% of the tested compound remaining) | + (between 25-75% compound remaining in the 20 μM WT ClbP reaction relative to the no-enzyme control) | –
6 | CCCCCCCC(=O)N[C@H](CC(N)=O)C(=O)N[C@@H](CC(C)C)C(=O)OC [Example 7, Methyl octanoyl-D-asparaginyl-L-leucinate] (Octanoyl-[dN]-Leu-OMe) | A (<25% of the tested compound remaining) | A (<25% of the tested compound remaining) | + (between 25-75% compound remaining in the 20 μM WT ClbP reaction relative to the no-enzyme control) | –
7 | CCCCCCCC(=O)N[C@H](CCC(=O)O)C(=O)N[C@@H](C)C(=O)OC [Example 9, (R)-5-(((S)-1-methoxy-1-oxopropan-2-yl)amino)-4-octanamido-5-oxopentanoic acid] (Octanoyl-[dE]-Ala-OMe) | B (25-75% of the tested compound remaining) | B (25-75% of the tested compound remaining) | − (>75% compound remaining in the 20 μM WT ClbP reaction relative to the no-enzyme control) | –
8 | CCCCCCCC(=O)N[C@H](CCC(N)=O)C(=O)N[C@@H](C)C(=O)OC [Example 10, Methyl octanoyl-D-glutaminyl-L-alaninate] (Octanoyl-[dQ]-Ala-OMe) | C (>75% of the tested compound remaining) | C (>75% of the tested compound remaining) | + (between 25-75% compound remaining in the 20 μM WT ClbP reaction relative to the no-enzyme control) | –
9 | CCCCCCCC(=O)N[C@H](CCCNC(=N)N)C(=O)N[C@@H](C)C(=O)OC [Example 11, Methyl octanoyl-D-arginyl-L-alaninate] (Octanoyl-[dR]-Ala-OMe) | A (<25% of the tested compound remaining) | C (>75% of the tested compound remaining) | − (>75% compound remaining in the 20 μM WT ClbP reaction relative to the no-enzyme control) | –
10 | COC(=O)[C@H](C)NC(=O)[C@@H](CC(N)=O)NC(=O)[C@@H](C)c1ccc2cc(OC)ccc2c1 [Example 18, Methyl ((S)-2-(6-methoxynaphthalen-2-yl)propanoyl)-D-asparaginyl-L-alaninate] | A (<25% of the tested compound remaining) | C (>75% of the tested compound remaining) | + (between 25-75% compound remaining in the 20 μM WT ClbP reaction relative to the no-enzyme control) | –
11 | CCCCCCCCCCCCCC(=O)N[C@H](CC(N)=O)C(=O)NCCCC(=O)OC [Example 20, Methyl (R)-4-(4-amino-4-oxo-2-tetradecanamidobutanamido)butanoate] | B (25-75% of the tested compound remaining) | A (<25% of the tested compound remaining) | − (>75% compound remaining in the 20 μM WT ClbP reaction relative to the no-enzyme control) | can be selectively delivered to the colon
12 | CCCCCCCCCCCCCC(=O)N[C@H](CC(N)=O)C(=O)N[C@@H](C)CCC(=O)OC [Example 21, Methyl (S)-4-((R)-4-amino-4-oxo-2-tetradecanamidobutanamido)pentanoate] | C (>75% of the tested compound remaining) | B (25-75% of the tested compound remaining) | − (>75% compound remaining in the 20 μM WT ClbP reaction relative to the no-enzyme control) | can be selectively delivered to the colon
13 | CCCCCCCCCCCCCC(=O)N[C@H](CC(N)=O)C(=O)Nc1ccc(COC)cc1 [Example 22, (R)—N1-(4-(methoxymethyl)phenyl)-2-tetradecanamidosuccinamide] | C (>75% of the tested compound remaining) | A (<25% of the tested compound remaining) | − (>75% compound remaining in the 20 μM WT ClbP reaction relative to the no-enzyme control) | can be selectively delivered to the colon
14 | CCCCCCCCCCCCCC(=O)N[C@H](CC(N)=O)C(=O)N[C@@H](C)CCC(=O)O[C@]1(CC)C(=O)OCc2c1cc1n(c2=O)Cc2c-1nc1ccc(O)cc1c2CC [Example 35, (S)-4,11-diethyl-9-hydroxy-3,14-dioxo-3,4,12,14-tetrahydro-1H-pyrano[3′,4′:6,7]indolizino[1,2-b]quinolin-4-yl (S)-4-((R)-4-amino-4-oxo-2-tetradecanamidobutanamido)pentanoate] | C (>75% of the tested compound remaining) | – | − (>75% compound remaining in the 20 μM WT ClbP reaction relative to the no-enzyme control) | –
15 | CCCCCCCC(=O)N[C@H](CC(N)=O)C(=O)NCCN(C)C(=O)Oc1ccc2c(C)cc(=O)oc2c1 [Example 70, 4-methyl-2-oxo-2H-chromen-7-yl (R)-(2-(4-amino-2-octanamido-4-oxobutanamido)ethyl)(methyl)carbamate] | C (>75% of the tested compound remaining) | C (>75% of the tested compound remaining) | − (>75% compound remaining in the 20 μM WT ClbP reaction relative to the no-enzyme control) | –
